Laboratory results: patent publication US20150232900A1, “PAPER FOLDING METHOD AND DEVICE FOR MANUFACTURING FILTER CARTRIDGES” (MYKO TECH PRIVATE LIMITED, priority 2012, published 2015)

Assays:
Assay type in all cases: cell-based
[1] = system: Retrovirus XMRV (Xenotropic Murine Leukemia Virus); test: Focus forming unit (FFU) inhibition assay, Retrovirus XMRV in PG4 cell line; settings: PG4 cells, positive control, tested 0.33-100 μM
Procedure: EPS from two thraustochytrids designated MT-5 and MT-6 were tested for inhibition of retrovirus A stock solution of 20 mg/ml of the EPS was prepared by solubilizing in 10% DMSO for injection into the cell lines infected by the virus. Various dilutions of the stock EPS were prepared in the tissue culture medium, Dulbecco ? Modified Eagle medium with 2% fetal bovine serum and antibiotics. The dilutions were: (1) 100 ? /ml; (2) 33 ? /ml; 10 ? /ml; (4) 3.3 μg/ml; (5) 1.0 μg/ml; (6) 0.33 μg/ml. A focus forming unit (FFU) inhibition assay in 6-well plates in vitro was carried out. A known concentration of cells from PG4 cell line was used to seed 6-well or 12-well plates for 24 hours. Each of the 6 different concentrations of the EPS was then added to duplicate wells and incubated for 1 hour and then approximately 50-100 focus forming units of the Retrovirus XMRV (Xenotropic Murine Leukemia Virus) in 10 ? were added to each well. Virus was allowed to absorb to the cells for 2 hours. After the incubation the virus was removed and agarose solution with EPS at each different was added to the appropriate infected well Plates were incubated in a 37° C. CO2 incubator for 5 days. The drug Tenofovir was kept as a positive control, at concentrations of 100, 33, 10, 3.3, 1.0 and 0.33 μM concentrations. At the end of incubation, cultures were fixed and stained with crystal violet to visualize the foci. […]

[2] = system: Human Cytomegalovirus AD-169; test: Plaque forming unit (PFU) inhibition assay, Human Cytomegalovirus AD-169 in MRC5 cell line; settings: Human Cytomegalovirus AD-169, MRC5 cells, positive control, tested 0.33-100 μM
Procedure: EPS from the thraustochytrid designated MT-5 were tested for inhibition of Cytomegalovirus. A stock solution of 20 mg/ml of the EPS was prepared by solubilizing in 10% DMSO for injection into the cell lines infected by the virus.
Various dilutions of the stock EPS were prepared in the tissue culture medium, Dulbecco ? Modified Eagle medium with 2% fetal bovine serum and antibiotics. The dilutions were: (1) 100 ? /ml; (2) 33 ? /ml; (3) 10 ? /ml; (4) 3.3 μg/ml; (5) 1.0 ? /ml; (6) 0.33 μg/ml. A plaque forming unit (PFU) inhibition assay in 6-well plates in vitro was carried out. A known concentration of cells from MRC5 cell line was used to seed 6-well or 12-well plates for 24 hours. Each of the 6 different concentrations of the EPS was then added to duplicate wells and incubated for 1 hour and then approximately 50-100 plaque forming units of the Human Cytomegalovirus AD-169 in 10 ? were added to each well. Virus was allowed to absorb to the cells for 2 hours. After the incubation the virus was removed and agarose solution with EPS at each different was added to the appropriate infected well. Plates were incubated in a 37° C. CO2 incubator for 5 days. The drug Acyclovir was kept as a positive control, at concentrations of 100, 33, 10, 3.3, 1.0 and 0.33 μM concentrations. […] Plaques were counted and numbers recorded. […]

Human Adenovirus 5 = test: Plaque forming unit (PFU) inhibition assay, Human Adenovirus 5 in A549 cell line; settings: Human Adenovirus 5, A549 cells, positive control, tested 0.33-100 μM; not at less
Procedure: EPS from two thraustochytrids, designated MT-5 and MT-6 were tested for inhibition of Adenovirus. A stock solution of 20 mg/ml of the EPS was prepared by solubilizing in 10% DMSO for injection into the cell lines infected by the virus. Various dilutions of the stock EPS were prepared in the tissue culture medium, Dulbecco ? Modified Eagle medium with 2% fetal bovine serum and antibiotics. The dilutions were: (1) 100 μg/ml; (2) 33 μg/ml; (3) 10 μg/ml; (4) 3.3 μg/ml; (5) 1.0 μg/ml; (6) 0.33 μg/ml. A plaque forming unit (PFU) inhibition assay in 6-well plates in vitro was carried out. A known concentration of cells from A549 cell line was used to seed 6-well or 12-well plates for 24 hours. Each of the 6 different concentrations of the EPS was then added to duplicate wells and incubated for 1 hour and then approximately 50-100 plaque forming units of Human Adenovirus 5 in 10 ? were added to each well. Virus was allowed to absorb to the cells for 2 hours. After the incubation the virus was removed and agarose solution with EPS at each different was added to the appropriate infected well. Plates were incubated in a 37° C. CO2 incubator for 5 days. The drug Cidofovir was kept as a positive control, at concentrations of 100, 33, 10, 3.3, 1.0 and 0.33 μM concentrations. […] Plaques were counted and numbers recorded. […]

## C[C@H](Cn1cnc2c(N)ncnc21)OCP(=O)(O)O [Tenofovir]
[1]
  concentration above which the drug was effective (viral foci): > 10.0 µM
  concentration that completely inhibited focal formation: 100 µM

## Nc1nc2c(ncn2COCCO)c(=O)[nH]1 [Acyclovir]
[2]
  effective concentration (not effective at any concentration tested, up to the maximum): > 100.0 µM

## Nc1ccn(C[C@@H](CO)OCP(=O)(O)O)c(=O)n1 [Cidofovir]
Human Adenovirus 5
  concentration that completely inhibited plaque formation: 100 µM
